Drawing on PubChem BioAssay AID256 (DTP/NCI, 2004), this text covers T/C for 13 molecules.

Values joined by “and” are separate entries in the source; they are usually repeats but may differ in a detail not shown here. Equal entries are not always repeated. Inconclusive results and toxic doses are left out.

The test system of the test is CD2F1 mice, L1210 leukemia ip, survival T/C. Kind of test: NCI In Vivo Anticancer Drug Screen. Data for tumor model L1210 Leukemia (intraperitoneal) in CD2F1 (CDF1) mice. The note with it: higher = longer survival. The method, boiled down: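 Activity against a transplanted murine tumor was judged by comparing the compound group with a vehicle group. The outcome in the treated animals was divided by that in the controls.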

The mark [1] stands for this setting: endpoint: mean survival time, dose: 100.0 mg/kg/injection, schedule: Q04DX003 (ip), vehicle: saline with Tween-80.
Where [2] appears, read: endpoint: mean survival time, dose: 200.0 mg/kg/injection, schedule: Q04DX003 (ip), vehicle: saline with Tween-80.
Setting [3] is: endpoint: mean survival time, dose: 400.0 mg/kg/injection, schedule: Q04DX003 (ip), vehicle: saline with Tween-80.
[4] abbreviates: endpoint: mean survival time, dose: 50.0 mg/kg/injection, schedule: Q01DX009 (ip), vehicle: saline with Tween-80.
Setting [5] is: endpoint: mean survival time, dose: 100.0 mg/kg/injection, schedule: Q01DX009 (ip), vehicle: saline with Tween-80.
[6] abbreviates: endpoint: mean survival time, dose: 200.0 mg/kg/injection, schedule: Q01DX009 (ip), vehicle: saline with Tween-80.

Turning to `COC1(c2ccccc2)CN(Cc2ccccc2)CCO1` (centres undefined), the T/C is, setting by setting: under setting [1], 103 % of control; under setting [2], 100 % of control; under setting [3], 106 % of control.
As to `CC1CC2(C)C(CC1=O)CC(C)C1C3CCC(O)C3(C)CCC12` (centres undefined), the T/C was 97 % of control under setting [1], 92 % of control under setting [2] and 95 % of control under setting [3].
Take `C=CCOCC(O)C[As](=O)(O)c1cccc(Cl)c1` (centres undefined): the T/C is, setting by setting: (endpoint: mean survival time, dose: 6.25 mg/kg/injection, schedule: Q04DX003 (ip), vehicle: saline with Tween-80) 103 % of control; (endpoint: mean survival time, dose: 12.5 mg/kg/injection, schedule: Q04DX003 (ip), vehicle: saline with Tween-80) 119 % of control.
In the case of `CNC(=O)N(C)CC(O)C(O)C(O)C(O)CO` (centres undefined), the T/C by setting is: under setting [1], 97 % of control; under setting [2], 104 % of control; under setting [3], 106 % of control.
Take `CC1C(c2ccccc2)OP(=O)(N(CCCl)CCCl)N1C` (centres undefined): the T/C is 110 % of control (endpoint: mean survival time, dose: 1.56 mg/kg/injection, schedule: Q01DX009 (ip), vehicle: other); 101 % of control (endpoint: mean survival time, dose: 3.13 mg/kg/injection, schedule: Q01DX009 (ip), vehicle: other); 98 % of control (endpoint: mean survival time, dose: 6.25 mg/kg/injection, schedule: Q01DX009 (ip), vehicle: other); 103 % of control and 95 % of control and 97 % of control (endpoint: mean survival time, dose: 12.5 mg/kg/injection, schedule: Q01DX009 (ip), vehicle: other); 92 % of control (endpoint: mean survival time, dose: 12.5 mg/kg/injection, schedule: Q01DX009 (ip), vehicle: water); 97 % of control and 100 % of control (endpoint: mean survival time, dose: 25.0 mg/kg/injection, schedule: Q01DX001 (ip), vehicle: other). Also, the T/C by setting is: (endpoint: mean survival time, dose: 25.0 mg/kg/injection, schedule: Q01DX009 (ip), vehicle: other) 104 % of control and 95 % of control; (endpoint: mean survival time, dose: 25.0 mg/kg/injection, schedule: Q01DX009 (ip), vehicle: water) 86 % of control; (endpoint: mean survival time, dose: 31.3 mg/kg/injection, schedule: Q01DX001 (ip), vehicle: other) 104 % of control [middle of 4 runs]; (endpoint: mean survival time, dose: 50.0 mg/kg/injection, schedule: Q01DX001 (ip), vehicle: other) 102 % of control and 92 % of control; (endpoint: mean survival time, dose: 50.0 mg/kg/injection, schedule: Q01DX009 (ip), vehicle: other) 95 % of control and 100 % of control; (endpoint: mean survival time, dose: 50.0 mg/kg/injection, schedule: Q01DX009 (ip), vehicle: water) 100 % of control. The T/C (endpoint: mean survival time, dose: 62.5 mg/kg/injection, schedule: Q01DX001 (ip), vehicle: other) was 104 % of control and 103 % of control and 101 % of control; the T/C (endpoint: mean survival time, dose: 100.0 mg/kg/injection, schedule: Q01DX001 (ip), vehicle: other) is 103 % of control and 97 % of control; the T/C (endpoint: mean survival time, dose: 100.0 mg/kg/injection, schedule: Q01DX009 (ip), vehicle: other) is 97 % of control and 100 % of control; the T/C (endpoint: mean survival time, dose: 100.0 mg/kg/injection, schedule: Q01DX009 (ip), vehicle: water) was 88 % of control; the T/C (endpoint: mean survival time, dose: 125.0 mg/kg/injection, schedule: Q01DX001 (ip), vehicle: other) was 95 % of control and 101 % of control and 104 % of control; the T/C (endpoint: mean survival time, dose: 200.0 mg/kg/injection, schedule: Q01DX001 (ip), vehicle: other) is 103 % of control and 108 % of control. The T/C reads like this: (endpoint: mean survival time, dose: 200.0 mg/kg/injection, schedule: Q01DX009 (ip), vehicle: other) 95 % of control and 101 % of control; (endpoint: mean survival time, dose: 250.0 mg/kg/injection, schedule: Q01DX001 (ip), vehicle: other) 103 % of control and 98 % of control and 97 % of control; (endpoint: mean survival time, dose: 500.0 mg/kg/injection, schedule: Q01DX001 (ip), vehicle: other) 107 % of control and 103 % of control and 104 % of control.
Take `C/C=C\c1ccc(OCCOC(=O)Nc2ccc(Cl)cc2C)c(OC)c1`: the T/C by setting is: under setting [4], 87 % of control; under setting [5], 92 % of control; under setting [6], 100 % of control.
As for `CC(=O)CC(C)=O.CC(=O)CC(C)=O.O=N[O-].O=N[O-].[Co]`, the T/C (endpoint: median survival time, dose: 12.5 mg/kg/injection, schedule: Q01DX009 (ip), vehicle: saline with Tween-80) is 106 % of control and 108 % of control and 111 % of control; the T/C (endpoint: median survival time, dose: 25.0 mg/kg/injection, schedule: Q01DX009 (ip), vehicle: saline with Tween-80) is 118 % of control and 111 % of control and 112 % of control; the T/C (endpoint: median survival time, dose: 50.0 mg/kg/injection, schedule: Q01DX009 (ip), vehicle: saline with Tween-80) was 116 % of control and 118 % of control; the T/C (endpoint: median survival time, dose: 100.0 mg/kg/injection, schedule: Q01DX009 (ip), vehicle: saline with Tween-80) is 90 % of control.
Take `Nc1ncnc2c1ncn2C1OC(COCc2ccccc2)C(OCc2ccccc2)C1OCc1ccccc1` (centres undefined): the T/C is 90 % of control (endpoint: mean survival time, dose: 20.0 mg/kg/injection, schedule: Q01DX Z (ip), vehicle: saline); 90 % of control (endpoint: mean survival time, dose: 40.0 mg/kg/injection, schedule: Q01DX Z (ip), vehicle: saline); 90 % of control and 93 % of control (endpoint: mean survival time, dose: 80.0 mg/kg/injection, schedule: Q01DX Z (ip), vehicle: saline); 91 % of control and 96 % of control (endpoint: mean survival time, dose: 160.0 mg/kg/injection, schedule: Q01DX Z (ip), vehicle: saline).
Regarding `CC(=O)O[C@H]1C(=O)[C@@]2(C)[C@H]([C@H](OC(=O)c3ccccc3)[C@]3(O)C[C@H](OC(=O)[C@H](O)[C@@H](NC(=O)c4ccccc4)c4ccccc4)C(C)=C1C3(C)C)[C@]1(OC(C)=O)CO[C@@H]1C[C@@H]2O`, the T/C reads like this: (endpoint: mean survival time, dose: 1.25 mg/kg/injection, schedule: Q01DX009 (ip), vehicle: Klucel (hydroxypropylcellulose) (HPC)) 93 % of control; (endpoint: mean survival time, dose: 2.5 mg/kg/injection, schedule: Q01DX009 (ip), vehicle: Klucel (hydroxypropylcellulose) (HPC)) 98 % of control; (endpoint: mean survival time, dose: 5.0 mg/kg/injection, schedule: Q01DX009 (ip), vehicle: Klucel (hydroxypropylcellulose) (HPC)) 113 % of control and 102 % of control; (endpoint: mean survival time, dose: 10.0 mg/kg/injection, schedule: Q01DX009 (ip), vehicle: Klucel (hydroxypropylcellulose) (HPC)) 115 % of control; (endpoint: mean survival time, dose: 40.0 mg/kg/injection, schedule: Q01DX009 (ip), vehicle: Klucel (hydroxypropylcellulose) (HPC)) 107 % of control.
On to `CC(C)(Nc1nc2c(ncn2C2OC(CO)C(O)C2O)c(=O)[nH]1)P(=O)(O)O` (centres undefined), for which the T/C runs as follows: (endpoint: median survival time, dose: 12.5 mg/kg/injection, schedule: Q01DX005 (ip), vehicle: water) 105 % of control; (endpoint: median survival time, dose: 25.0 mg/kg/injection, schedule: Q01DX005 (ip), vehicle: water) 103 % of control; (endpoint: median survival time, dose: 50.0 mg/kg/injection, schedule: Q01DX005 (ip), vehicle: water) 108 % of control; (endpoint: median survival time, dose: 100.0 mg/kg/injection, schedule: Q01DX005 (ip), vehicle: water) 105 % of control.
On to `CN1CCN(CN2C(=O)C3C4C=CC(C3C2=O)C2C3C(=O)N(CN5CCN(C)CC5)C(=O)C3C42)CC1` (centres undefined), for which the T/C by setting is: (endpoint: median survival time, dose: 7.2 mg/kg/injection, schedule: Q03HX027 (ip), vehicle: water) 106 % of control; (endpoint: median survival time, dose: 8.3 mg/kg/injection, schedule: Q03HX027 (ip), vehicle: water) 104 % of control; (endpoint: median survival time, dose: 12.0 mg/kg/injection, schedule: Q03HX027 (ip), vehicle: water) 114 % of control; (endpoint: median survival time, dose: 16.1 mg/kg/injection, schedule: Q01DX009 (ip), vehicle: water) 108 % of control; (endpoint: median survival time, dose: 24.8 mg/kg/injection, schedule: Q01DX009 (ip), vehicle: water) 102 % of control and 105 % of control and 109 % of control; (endpoint: median survival time, dose: 26.8 mg/kg/injection, schedule: Q01DX009 (ip), vehicle: water) 105 % of control. The T/C by setting is: (endpoint: median survival time, dose: 33.4 mg/kg/injection, schedule: Q03HX027 (ip), vehicle: water) 172 % of control; (endpoint: median survival time, dose: 38.4 mg/kg/injection, schedule: Q03HX027 (ip), vehicle: water) 114 % of control; (endpoint: median survival time, dose: 41.3 mg/kg/injection, schedule: Q01DX009 (ip), vehicle: water) 124 % of control; (endpoint: median survival time, dose: 44.6 mg/kg/injection, schedule: Q01DX009 (ip), vehicle: water) 152 % of control; (endpoint: median survival time, dose: 55.7 mg/kg/injection, schedule: Q03HX027 (ip), vehicle: water) 103 % of control; (endpoint: median survival time, dose: 68.8 mg/kg/injection, schedule: Q01DX009 (ip), vehicle: water) 178 % of control and 183 % of control and 219 % of control. Besides, the T/C was 255 % of control (endpoint: median survival time, dose: 74.4 mg/kg/injection, schedule: Q01DX009 (ip), vehicle: water); 210 % of control and 243 % of control and 103 % of control (endpoint: median survival time, dose: 114.7 mg/kg/injection, schedule: Q01DX009 (ip), vehicle: water).
Consider `Nc1ccccc1O`, for which the T/C is, setting by setting: under setting [5], 114 % of control; (endpoint: mean survival time, dose: 100.0 mg/kg/injection, schedule: Q04DX003 (ip), vehicle: saline) 100 % of control; under setting [6], 114 % of control; (endpoint: mean survival time, dose: 200.0 mg/kg/injection, schedule: Q04DX003 (ip), vehicle: saline) 96 % of control; (endpoint: mean survival time, dose: 400.0 mg/kg/injection, schedule: Q04DX003 (ip), vehicle: saline) 119 % of control.
For the molecule `CC(=C(C#N)C#N)c1ccccc1`, the T/C is 92 % of control (endpoint: mean survival time, dose: 12.5 mg/kg/injection, schedule: Q01DX009 (ip), vehicle: saline with Tween-80); 89 % of control (endpoint: mean survival time, dose: 25.0 mg/kg/injection, schedule: Q01DX009 (ip), vehicle: saline with Tween-80); 87 % of control under setting [4].
